In the supplement of paper PMC11061612:

Legend:
Carboplatin = compound: C1CC(C1)(C(=O)[O-])C(=O)[O-].N.N.[Pt+2] [Carboplatin]; settings: max 10 µM
Summary of the method: (§1)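 Viability was measured with CellTiter-Glo 2.0 luminescence after 72 hours of dosing at a final DMSO of typically 0.2%, and scaled between blank-well and DMSO-well means. Beforehand, cancer cell lines sat 24 hours at 37°C and 5% CO2 in 1536-well plates in 7.5 μl DMEM/F12 or RPMI with 10% FBS. A non-linear mixed effects model fitted two-parameter logistic curves to the dose responses. The single-agent IC50 comes from these fits.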

AZD5363 = compound: C1CN(CCC1(C(=O)N[C@@H](CCO)C2=CC=C(C=C2)Cl)N)C3=NC=NC4=C3C=CN4 [AZD5363]; settings: max 10 µM
Summary of the method: as §1

AZD1775 = compound: C=CCn1c(=O)c2cnc(Nc3ccc(N4CCN(C)CC4)cc3)nc2n1-c1cccc(C(C)(C)O)n1 [AZD1775]; settings: max 3 µM
Summary of the method: as §1

Trametinib = compound: CC(=O)Nc1cccc(-n2c(=O)n(C3CC3)c(=O)c3c(Nc4ccc(I)cc4F)n(C)c(=O)c(C)c32)c1 [Trametinib]; settings: max 1 µM
Summary of the method: as §1

Paclitaxel = compound: CC(=O)O[C@H]1C(=O)[C@@]2(C)[C@H]([C@H](OC(=O)c3ccccc3)[C@]3(O)C[C@H](OC(=O)[C@H](O)[C@@H](NC(=O)c4ccccc4)c4ccccc4)C(C)=C1C3(C)C)[C@]1(OC(C)=O)CO[C@@H]1C[C@@H]2O [Paclitaxel]; settings: max 3 µM
Summary of the method: as §1

Palbociclib = compound: CC(=O)c1c(C)c2cnc(Nc3ccc(N4CCNCC4)cn3)nc2n(C2CCCC2)c1=O [Palbociclib]; settings: max 10 µM
Summary of the method: as §1

AZD1390 = compound: CC(C)n1c(=O)n(C)c2cnc3cc(F)c(-c4ccc(OCCCN5CCCCC5)nc4)cc3c21 [AZD1390]; settings: max 0.3 µM
Summary of the method: as §1

Venetoclax = compound: CC1(C)CCC(CN2CCN(c3ccc(C(=O)NS(=O)(=O)c4ccc(NCC5CCOCC5)c([N+](=O)[O-])c4)c(Oc4cnc5[nH]ccc5c4)c3)CC2)=C(c2ccc(Cl)cc2)C1 [Venetoclax]; settings: max 1 µM
Summary of the method: as §1

Dasatinib = compound: CC1=C(C(=CC=C1)Cl)NC(=O)C2=CN=C(S2)NC3=CC(=NC(=N3)C)N4CCN(CC4)CCO [Dasatinib]; settings: max 2 µM
Summary of the method: as §1

SG3199 = compound: CC1=CN2[C@@H](C1)C=NC3=CC(=C(C=C3C2=O)OC)OCCCCCOC4=C(C=C5C(=C4)N=C[C@@H]6CC(=CN6C5=O)C)OC [SG3199]; settings: max 0.001 µM
Summary of the method: as §1

AZD2811 = compound: CCN(CCO)CCCOc1ccc2c(Nc3cc(CC(=O)Nc4cccc(F)c4)[nH]n3)ncnc2c1 [AZD2811]; settings: max 1 µM
Summary of the method: as §1

SN-38 = compound: CCc1c2c(nc3ccc(O)cc13)-c1cc3c(c(=O)n1C2)COC(=O)[C@]3(O)CC [SN-38]; settings: max 0.3 µM
Summary of the method: as §1

AZD0156 = compound: CN(C)CCCOc1ccc(-c2ccc3ncc4c(c3c2)n(C2CCOCC2)c(=O)n4C)cn1 [AZD0156]; settings: max 3 µM
Summary of the method: as §1

AZD4320 = compound: CN(CC[C@H](CSC1=CC=CC=C1)NC2=C(C=C(C=C2)S(=O)(=O)NC(=O)C3=CC=C(C=C3)N4CCC(CC4)[C@H](C5=CC=CC=C5C6=CC=C(C=C6)Cl)O)S(=O)(=O)C(F)(F)F)CCO [AZD4320]; settings: max 1 µM
Summary of the method: as §1

Alisertib = compound: COc1cc(Nc2ncc3c(n2)-c2ccc(Cl)cc2C(c2c(F)cccc2OC)=NC3)ccc1C(=O)O [Alisertib]; settings: max 10 µM
Summary of the method: as §1

Etoposide = compound: COc1cc([C@@H]2c3cc4c(cc3[C@@H](O[C@@H]3O[C@@H]5CO[C@@H](C)O[C@H]5[C@H](O)[C@H]3O)[C@H]3COC(=O)[C@H]23)OCO4)cc(OC)c1O [Etoposide]; settings: max 10 µM
Summary of the method: as §1

Gefitinib = compound: COc1cc2ncnc(Nc3ccc(F)c(Cl)c3)c2cc1OCCCN1CCOCC1 [Gefitinib]; settings: max 10 µM
Summary of the method: as §1

Prexasertib = compound: COc1cccc(OCCCN)c1-c1cc(Nc2cnc(C#N)cn2)n[nH]1 [Prexasertib]; settings: max 1 µM
Summary of the method: as §1

Doxorubicin = compound: COc1cccc2c1C(=O)c1c(O)c3c(c(O)c1C2=O)C[C@@](O)(C(=O)CO)C[C@@H]3O[C@H]1C[C@H](N)[C@H](O)[C@H](C)O1 [Doxorubicin]; settings: max 1 µM
Summary of the method: as §1

AZD5153 = compound: COc1nnc2ccc(N3CCC(c4ccc(OCCN5CCN(C)C(=O)[C@H]5C)cc4)CC3)nn12 [AZD5153]; settings: max 1 µM
Summary of the method: as §1

Lapatinib = compound: CS(=O)(=O)CCNCc1ccc(-c2ccc3ncnc(Nc4ccc(OCc5cccc(F)c5)c(Cl)c4)c3c2)o1 [Lapatinib]; settings: max 10 µM
Summary of the method: as §1

AZD8186 = compound: C[C@@H](Nc1cc(F)cc(F)c1)c1cc(C(=O)N(C)C)cc2c(=O)cc(N3CCOCC3)oc12 [AZD8186]; settings: max 10 µM
Summary of the method: as §1

Crizotinib = compound: C[C@@H](Oc1cc(-c2cnn(C3CCNCC3)c2)cnc1N)c1c(Cl)ccc(F)c1Cl [Crizotinib]; settings: max 10 µM
Summary of the method: as §1

Savolitinib = compound: C[C@@H](c1ccc2nccn2c1)n1nnc2ncc(-c3cnn(C)c3)nc21 [Savolitinib]; settings: max 1 µM
Summary of the method: as §1

AZD6738 = compound: C[C@@H]1COCCN1C2=NC(=NC(=C2)C3(CC3)[S@](=N)(=O)C)C4=C5C=CNC5=NC=C4 [AZD6738]; settings: max 10 µM
Summary of the method: as §1

AZD5991 = compound: Cc1c2c(nn1C)CSCc1cc(n(C)n1)CSc1cc(c3ccccc3c1)OCCCc1c(C(=O)O)n(C)c3c-2c(Cl)ccc13 [AZD5991]; settings: max 1 µM
Summary of the method: as §1

AZD7648 = compound: Cc1cc2ncnn2cc1Nc1ncc2c(n1)n(C1CCOCC1)c(=O)n2C [AZD7648]; settings: max 10 µM
Summary of the method: as §1

Taselisib = compound: Cc1nc(-c2cn3c(n2)-c2ccc(-c4cnn(C(C)(C)C(N)=O)c4)cc2OCC3)n(C(C)C)n1 [Taselisib]; settings: max 10 µM
Summary of the method: as §1

Selumetinib = compound: Cn1cnc2c(F)c(Nc3ccc(Br)cc3Cl)c(C(=O)NOCCO)cc21 [Selumetinib]; settings: max 10 µM
Summary of the method: as §1

SRA737 = compound: N#Cc1cnc(Nc2cc(NC[C@H]3CNCCO3)c(C(F)(F)F)cn2)cn1 [SRA737]; settings: max 10 µM
Summary of the method: as §1

MK-2206 = compound: NC1(c2ccc(-c3nc4ccn5c(=O)[nH]nc5c4cc3-c3ccccc3)cc2)CCC1 [MK-2206]; settings: max 10 µM
Summary of the method: as §1

Gemcitabine = compound: Nc1ccn([C@@H]2O[C@H](CO)[C@@H](O)C2(F)F)c(=O)n1 [Gemcitabine]; settings: max 0.3 µM
Summary of the method: as §1

[1] = compound: O=C(Nc1ccc2[nH]nc(-c3ccncc3)c2c1)[C@@H]1CCN(CC(=O)N2CCN(c3ccc(-c4ncccn4)cc3)CC2)C1; settings: max 5 µM
Summary of the method: as §1

Olaparib = compound: O=C(c1cc(Cc2n[nH]c(=O)c3ccccc23)ccc1F)N1CCN(C(=O)C2CC2)CC1 [Olaparib]; settings: max 10 µM
Summary of the method: as §1

5-Fluorouracil = compound: O=c1[nH]cc(F)c(=O)[nH]1 [5-Fluorouracil]; settings: max 20 µM
Summary of the method: as §1

Cell Line | IC50, cell viability 72 h (Carboplatin) [µM] | IC50, cell viability 72 h (AZD5363) [µM] | IC50, cell viability 72 h (AZD1775) [µM] | IC50, cell viability 72 h (Trametinib) [µM] | IC50, cell viability 72 h (Paclitaxel) [µM] | IC50, cell viability 72 h (Palbociclib) [µM] | IC50, cell viability 72 h (AZD1390) [µM] | IC50, cell viability 72 h (Venetoclax) [µM] | IC50, cell viability 72 h (Dasatinib) [µM] | IC50, cell viability 72 h (SG3199) [µM] | IC50, cell viability 72 h (AZD2811) [µM] | IC50, cell viability 72 h (SN-38) [µM] | IC50, cell viability 72 h (AZD0156) [µM] | IC50, cell viability 72 h (AZD4320) [µM] | IC50, cell viability 72 h (Alisertib) [µM] | IC50, cell viability 72 h (Etoposide) [µM] | IC50, cell viability 72 h (Gefitinib) [µM] | IC50, cell viability 72 h (Prexasertib) [µM] | IC50, cell viability 72 h (Doxorubicin) [µM] | IC50, cell viability 72 h (AZD5153) [µM] | IC50, cell viability 72 h (Lapatinib) [µM] | IC50, cell viability 72 h (AZD8186) [µM] | IC50, cell viability 72 h (Crizotinib) [µM] | IC50, cell viability 72 h (Savolitinib) [µM] | IC50, cell viability 72 h (AZD6738) [µM] | IC50, cell viability 72 h (AZD5991) [µM] | IC50, cell viability 72 h (AZD7648) [µM] | IC50, cell viability 72 h (Taselisib) [µM] | IC50, cell viability 72 h (Selumetinib) [µM] | IC50, cell viability 72 h (SRA737) [µM] | IC50, cell viability 72 h (MK-2206) [µM] | IC50, cell viability 72 h (Gemcitabine) [µM] | IC50, cell viability 72 h [1] [µM] | IC50, cell viability 72 h (Olaparib) [µM] | IC50, cell viability 72 h (5-Fluorouracil) [µM]
BxPC-3 (Pancreatic Carcinoma) | > 10 | > 10 | 1.71 | 0.487 | 0.602 | > 10 | > 0.3 | > 1 | 1.85 | > 0.001 | > 1 | > 0.3 | > 3 | > 1 | > 10 | > 10 | > 10 | 0.0684 | > 1 | > 1 | > 10 | > 10 | > 10 | > 1 | > 10 | > 1 | > 10 | > 10 | > 10 | > 10 | > 10 | > 0.3 | 4.09 | > 10 | > 20
C-33-A (Cervical Carcinoma) | > 10 | 2.64 | 0.206 | 0.938 | 0.019 | > 10 | > 0.3 | > 1 | 0.781 | > 0.001 | > 1 | 0.0201 | > 3 | > 1 | > 10 | 0.909 | 8.59 | 0.0528 | 0.217 | > 1 | > 10 | > 10 | > 10 | > 1 | 1.42 | > 1 | > 10 | > 10 | > 10 | > 10 | > 10 | 0.0256 | > 5 | > 10 | > 20
COR-L88 (Small Cell Lung Carcinoma) | > 10 | > 10 | 1.76 | > 1 | > 3 | > 10 | > 0.3 | > 1 | > 2 | > 0.001 | > 1 | > 0.3 | > 3 | 0.11 | > 10 | > 10 | > 10 | 0.0459 | > 1 | > 1 | > 10 | > 10 | > 10 | > 1 | > 10 | > 1 | > 10 | > 10 | > 10 | > 10 | > 10 | > 0.3 | > 5 | > 10 | > 20
CPC-N (Small Cell Lung Carcinoma) | > 10 | > 10 | 0.297 | > 1 | 0.0211 | > 10 | > 0.3 | 0.721 | > 2 | > 0.001 | 0.0598 | > 0.3 | > 3 | 0.178 | 0.67 | 5.13 | > 10 | 0.00403 | 0.887 | 0.774 | > 10 | > 10 | 6.99 | > 1 | 2.13 | > 1 | > 10 | 8.22 | > 10 | 1.76 | > 10 | 0.144 | > 5 | > 10 | > 20
ES6 (Ewing's Sarcoma) | > 10 | > 10 | > 3 | > 1 | > 3 | > 10 | > 0.3 | > 1 | > 2 | > 0.001 | > 1 | > 0.3 | > 3 | > 1 | > 10 | > 10 | > 10 | 0.481 | > 1 | > 1 | > 10 | > 10 | > 10 | > 1 | > 10 | > 1 | > 10 | 3.63 | > 10 | > 10 | > 10 | 0.268 | > 5 | > 10 | > 20
